Assay results reported in patent US20240139327A1, “PRODRUG COMPOUND, PREPARATION METHOD THEREFOR AND USE THEREOF” (MINGHUI PHARMACEUTICAL (HANGZHOU) LIMITED, priority 2021, published 2024).
Like-named read-outs stand apart in the source and are kept apart here.

Test: Skin-Pampa assay
Type: in vitro ADME
Details: for Multiplicity (relative to the prototype drug): Skin-Pampa Pe of prodrug relative to its prototype drug
Method: • 1. Hydrate the Skin-Pampa membrane with hydration solution overnight. • 2. Dissolve each compound to be tested in DMSO and prepare 0.5 mL 20 mM solutions of the test compounds. Take 50 uL of solutions of the test compounds to the corresponding 5 mL of donor solution and mix well. • 3. Add 200 μL of the sample solution to the donor (bottom) plate and add 200 μL of acceptor solution into the wells of the acceptor (TOP) plate, and 12 wells are incubated in parallel for each sample. • 4. After 7 hours of incubation, 100 μL of the sample in each of the donor plate and 100 μL of the sample in each of the acceptor plate were sampled and then added with 200 μL of dilution (50% acetonitrile aqueous solution), mixed by vortexing and centrifuged, 200 μL of the supernatant was used for HPLC content detection. • 5. The Skin-Pampa parameters are calculated according to the following equation
[formula] [formula] • Pe—effective permeability coefficient; • VA— the volume of acceptor well (ml); • VD— the volume of donorwell (ml); • A—the filtration area (cm^2); • t—the incubation time (s); • tLAG—the steady-state time (s); • CD(t)—the concentration of the compound in donorwell at t; • CA(t)—the concentration of the compound in acceptor well at t; • CD(0)—the concentration at the compound in donorwell at 0.

[1] = Skin-Pampa, 7 hours of incubation, 12 wells in parallel, HPLC detection
[2] = Skin-Pampa, 7 hours of incubation, 12 wells in parallel, HPLC detection, read-out: Pe (effective permeability coefficient)

Compound | Multiplicity (relative to the prototype drug) | LogPe [1] | Papp at 7 h, 200 µM [2] | Papp at 7 h, 200 µM (PAMPA) | LogPe (PAMPA, 7 h, 200 µM)
CCCCC(CC)CCC(=O)OCn1ccc2c(N(C)[C@H]3CN(C(=O)CC#N)CC[C@H]3C)ncnc21 (stereo partly shown) [Example 4] | 8.25-8.92 | −5.50 ± 0.17 | 3.13 ± 1.15 ×10⁻⁶ cm/s | – | –
CCCCC(CC)CCC(=O)OCn1ccc2c(NC3C4CC5CC3CC(O)(C5)C4)c(C(N)=O)cnc21 (stereo not shown) [Example 13] | 8.59-15.6 | −6.01 ± 0.19 | 1.07 ± 0.39 ×10⁻⁶ cm/s | – | –
NC(=O)c1cnc2[nH]ccc2c1N[C@@H]1[C@@H]2CC3C[C@H]1C[C@@](O)(C3)C2 [Peficitinib, reference compound] | – | −7.06 ± 0.33 | 0.11 ± 0.06 ×10⁻⁶ cm/s | – | –
CCCCC(CC)CCC(=O)OCn1ccc2c(-c3cnn(C4(CC#N)CN(C5CCN(C(=O)c6ccnc(C(F)(F)F)c6F)CC5)C4)c3)ncnc21 (stereo not shown) [Example 15] | 5.8-19.5 | −5.90 ± 0.20 | 1.26 ± 0.48 ×10⁻⁶ cm/s | – | –
N#CCC1(n2cc(-c3ncnc4[nH]ccc34)cn2)CN(C2CCN(C(=O)c3ccnc(C(F)(F)F)c3F)CC2)C1 [Itacitinib, reference compound] | – | −6.88 ± 0.34 | 0.13 ± 0.17 ×10⁻⁶ cm/s | – | –
CN1C(C(=O)Nc2ccccn2)=C(O)c2ccccc2S1(=O)=O [Piroxicam, reference compound] | – | −5.73 ± 0.06 | 1.84 ± 0.24 ×10⁻⁶ cm/s | – | –
CCCCCCCC(=O)OCn1ccc2c(N(C)[C@H]3CN(C(=O)CC#N)CC[C@H]3C)ncnc21 [Example 1] | 4.31-4.46 | – | – | 1.57 ± 0.5 ×10⁻⁶ cm/s | −5.80 ± 0.11
CCCCCCCCCCCC(=O)OCn1ccc2c(N(C)[C@H]3CN(C(=O)CC#N)CC[C@H]3C)ncnc21 [Example 5] | 6.88-8.15 | −5.56 ± 0.16 | 2.78 ± 1.13 ×10⁻⁶ cm/s | – | –
CCCCCCCCCC(=O)OCn1ccc2c(N(C)[C@H]3CN(C(=O)CC#N)CC[C@H]3C)ncnc21 [Example 8] | 5.29-7.67 | −5.66 ± 0.08 | 2.19 ± 0.35 ×10⁻⁶ cm/s | – | –
CCCCCCCCC(=O)OCn1ccc2c(N(C)[C@H]3CN(C(=O)CC#N)CC[C@H]3C)ncnc21 [Example 7] | 7.38-10.08 | −5.53 ± 0.08 | 2.98 ± 0.56 ×10⁻⁶ cm/s | – | –
CCCCC(CC)CCC(=O)OCn1ccc2c1ncc1ncc([C@H]3CN(C(=O)NCC(F)(F)F)C[C@H]3CC)n12 (stereo partly shown) [Example 14] | 6.81-8.83 | −6.09 ± 0.19 | 0.81 ± 0.28 ×10⁻⁶ cm/s | – | –
CC[C@@H]1CN(C(=O)NCC(F)(F)F)C[C@@H]1c1cnc2cnc3[nH]ccc3n12 [Upadacitinib, reference compound] | – | −6.96 ± 0.20 | 0.11 ± 0.05 ×10⁻⁶ cm/s | – | –
C[C@@H]1CCN(C(=O)CC#N)C[C@@H]1N(C)c1ncnc2[nH]ccc12 [Tofacitinib, reference compound] | – | −6.45 ± 0.14 | 0.36 ± 0.12 ×10⁻⁶ cm/s | – | –
